Results reported in patent US9532980B2, “Methods for the treatment of A-β related disorders and compositions therefor” (The Rockefeller University, priority 2006, dated 2017).

How the values were obtained:
[1] = system: Aβ40 and Aβ42 peptide production in N2A-APP695 cells transiently expressing CK1ε-271; assay: Aβ40/Aβ42 ELISA in N2A-APP695 cells transiently expressing constitutively active CK1ε-271; assay type: cell-based; settings: for effect on Aβ40 and Aβ42 peptide concentration/production: increasing concentrations, 3 hours incubation, ELISA
Description: (§1) N2A-APP695 cells are plated in 12-well dishes at a density of 3×10^5 cells per well in DMEM/Opti-MEM medium containing 5% Fetal Bovine Serum (FBS) following manufacturer's instructions (American Type Culture Collection).=For the time-course experiments, cells are exposed to drugs for 1-24 h.
Transfection: Transfection of N2A-APP695 cells is performed by standard methods. Cells are grown to 60% confluence and then transfected with relevant constructs with FUGENE6 according to the manufacturer's protocol (Roche Applied Bioscience). After transfection, cells are recovered with 100 μl of RIPA buffer, incubated for 30 min on ice, and centrifuged at 13,000 rpm 20 min at 4° C. The supernatants are collected and submitted to BCA (Pierce) quantification accordingly to manufacturer's instructions. Equal amounts of cell extracts are loaded onto 4-12% Bis-Tris acrylamide gels (Invitrogen) with MES buffer and subjected to western blot analysis using appropriate antibodies. For immunoprecipitation assays, media are incubated with antibody 4G8 (Signet) to detect Aβ and full length βAPP. Drugs are added to cell cultures in fresh medium (0.5% fetal bovine serum); media and cells are collected at the relevant time.
N2A cells stably expressing APP-695 are transiently transfected with CK1ε-271. 48 hours post-transfection, cells are incubated in the absence or presence of increasing concentrations of CK1 inhibitor IC261. Cell supernatants are collected after 3 hours of incubation and subjected to Aβ40/Aβ42 ELISA assays. […] In order to exclude non-specific effects of IC261, two other CK1 inhibitors, CKI-7 and D4476 are tested.

[2] = system: Aβ peptide production in N2A cells expressing APP-695; assay: Endogenous Aβ peptide production in N2A cells expressing APP-695 (sandwich ELISA, immunoprecipitation/western blot); assay type: cell-based; settings: for decrease for Aβ40 peptide / decrease for Aβ42 peptide: 50 μM, three hours, N2A cells expressing APP-695
Description: as §1
2003 Oct. 14; 100(21):12444-9.
We next investigated the effect of the three different classes of CK1 inhibitors CKI-7, IC-261, and D4476 (Chijiwa, T., et al. (1989) J Biol Chem 264, 4924-7; Mashhoon, N., et al. (2000) J Biol Chem 275, 20052-60; Rena, G., et al. (2004) EMBO Rep 5, 60-5) on Aβ peptide production in N2A cells expressing APP-695.

N2A-APP695 cells = assay: Cell viability: lactate dehydrogenase release into media (CytoTox96 kit); assay type: cell-based
From the text: To exclude the possibility that the inhibitory effects on Aβ peptide production are due to cellular toxicity, we investigated the effects of the drugs on cell viability. Media are collected and tested for the level of lactate dehydrogenase, a stable cytosolic enzyme released upon cell lysis, using a non-radioactive CytoTox96 kit (Promega). Values obtained from drug treated cells are compared with values obtained with DMSO and non-treated cells. No toxicity is observed for CKI-7, even after 24 hours of incubation and for the highest concentration tested (50 μM). A slight toxicity (less than 1-fold) is observed for D4476, only for the higher dose tested (50 μM) and only after 24 hours of incubation.

Notch cleavage = assay: mNotchΔE Notch-1 cleavage assay in N2A cells (western blot, NICD); assay type: cell-based; settings: N2A cells over-expressing mNotchΔE, 3 hours
Description: mNotchΔE Transfection and Notch-1 Cleavage Assays in N2A-APP695 Cells: N2A cells stably overexpressing APP Swedish mutant are transiently transfected to overexpress mNotchE (truncated Notch-1, lacking most of the Notch extracellular domain (Kopan, R., et al. (1996) Proc Natl Acad Sci USA 93, 1683-8). Cultures are preincubated with the different inhibitors for 3 hours. mNotchΔE is detected in cell lysates by western blot analysis using the Cleaved Notch 1 antibody (NICD) available from Cell Signaling.
Several protein kinases and protein phosphatases have been implicated in the progression of Alzheimer's disease and especially in the regulation of β-amyloid formation. These include the protein kinases PKA, PKC, GSK3-β and CDK5, and the protein phosphatases PP1/PP2A and PP2B. […] Unfortunately, these effects are associated with increased carcinogenic risk. […] We therefore investigated the effect of CK1 inhibitors on Notch processing. Briefly, N2A cells transiently transfected with N-terminally truncated mNotchΔE-myc cDNA containing plasmid are incubated with 1, 10 μM concentrations of DAPT, 1,10 μM concentrations of L-685,458, 5, 50 μM concentrations of D4476 or 1, 10 μM concentrations of Gleevec for 3 hours. Cell lysates are analysed by conventional SDS-PAGE analysis and western blotting using anti-Notch (NICD cleavage product), anti-Aβ, anti-myc and anti-actin antibodies.

CK1 = settings: Rena et al. (2004) EMBO Rep 5, 60-5; cited from earlier work
[3] = system: APP, βCTF and Aβ40 peptide levels in N2A-APP695 cells; assay: APP, βCTF and Aβ40 levels in N2A-APP695 cells (western blot, Aβ40 ELISA); settings: 50 μM, 3 hours
Description: Aβ quantification: After immobilization of total Aβ (coated monoclonal antibody specific for the N-terminus of Aβ from media, Aβ40/42 peptide determinations are made by sandwich ELISA (BioSource International) using rabbit polyclonal antibodies specific for the C-terminus of Aβ40 or Aβ42. In all cases, Aβ levels are normalized to total protein levels.
The effects of D4476 on APP, βCTF and Aβ40 peptide levels in N2A-APP695 cells are compared. N2A cells are incubated for 3 hours with 0, 1, 5 or 50 μM concentrations of D4476. Cellular extracts are subjected to western blotting analysis using βCTF or APP antibodies, or to Aβ40 ELISA assays. […] Data for at least three experiments (mean±S.E.M.) are compared (Prism) with the control conditions (no drug).

APP-C99 in N2A cells = assay: C99 breakdown and Aβ production in N2A cells transiently transfected with APP-C99; settings: 3 hours
Description: Cellular extracts are subjected to western blotting analysis using βCTF or APP antibodies, or to Aβ40 ELISA assays. N2A cells are transiently transfected with a APP-C99 containing plasmid. […] Cell lysates are analyzed by SDS-PAGE and western blotting analysis or by Aβ40 ELISA assay. Data for at least three experiments (mean±S.E.M.) are compared (Prism) with the control conditions (no drug).

[4] = CK1ε-271 over-expressing N2A-APP695 cells

| SMILES | effect on Aβ40 and Aβ42 peptide concentration/production [1, 4] | decrease for Aβ40 peptide [2] | decrease for Aβ42 peptide [2] | Notch cleavage (Notch cleavage) | other results |
| --- | --- | --- | --- | --- | --- |
| NCCNS(=O)(=O)c1ccc(Cl)c2ccncc12 [CKI-7] | significant and dose-dependent reduction | 14.8% | 24% | not affected | toxicity (lactate dehydrogenase release) (N2A-APP695 cells; 24 hours of incubation, highest concentration tested (50 μM)): No toxicity |
| NC(=O)c1ccc(-c2nc(-c3ccc4c(c3)OCCO4)c(-c3ccccn3)[nH]2)cc1 [D4476, 4-(4-(2,3-dihydrobenzo[1,4]dioxin-6-yl)-5-pyridin-2-yl-1H-imidazol-2-yl)benzamide] | significant and dose-dependent reduction | 42% | 54.1% | not affected | toxicity (lactate dehydrogenase release), fold (N2A-APP695 cells; slight toxicity only at 50 μM and only after 24 hours, compared with DMSO and non-treated cells): less than 1 fold; concentration required to observe an effect on CK1 activity in cell lines (CK1): 50 µM; APP expression level [3]: no effect; Aβ peptide production [3]: considerably reduces; βCTF levels [3]: significantly increases; lowest concentration at which effects on C99 breakdown and Aβ production are apparent (APP-C99 in N2A cells): 5 µM; Aβ peptide production (APP-C99 in N2A cells; various concentrations): decreased Aβ peptide production in a dose dependent manner; breakdown of C99 (APP-C99 in N2A cells; various concentrations): inhibited the breakdown of C99 |
| C[C@H](NC(=O)Cc1cc(F)cc(F)c1)C(=O)N[C@H](C(=O)OC(C)(C)C)c1ccccc1 [DAPT] | – | – | – | total inhibition | – |
| COc1cc(OC)c(/C=C2/C(=O)Nc3ccccc32)c(OC)c1 [IC261, (3E)-3-[(2,4,6-trimethoxyphenyl)methylidene]-1 H-indol-2-one] | dramatic reduction | 48% | 52.4% | not affected | concentration at which the effect on Aβ40/Aβ42 is near maximum ([1]; CK1ε-271 over-expressing N2A-APP695 cells, 3 hours): 5 µM; time dependence of the reduction of Aβ40 and Aβ42 peptide concentration ([1]; longer exposure gives greater reduction): time-dependent effect; toxicity (lactate dehydrogenase release) (N2A-APP695 cells; after 12 hours of incubation): No effect on toxicity |
| NC(=O)c1ccc(-c2nc(-c3ccc4c(c3)OCO4)c(-c3ccccn3)[nH]2)cc1 [SB-431542, 4-(4-(benzo[1,3]dioxol-5-yl)-5-pyridin-2-yl-1H-imidazol-2-yl)benzamide] | – | – | – | – | properties on Aβ peptide formation compared with D4476 [2]: very comparable properties |
